Some test systems named below: MALME-3M melanoma; PC-3 prostate; HOP-62 NSCLC; RXF 393 renal; KM12 colon; SNB-19 CNS; HCT-15 colon; T-47D breast; MCF7 breast; MDA-MB-231 breast.
Common to all, as to assay: growth of human tumour cells (NCI), 48 h

Among the data in PubChem BioAssay (NCI) are GI50 and TGI values, retold here.

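Step 1: Grow cells in 96-well plates. Step 2: Expose to compound for 48 hours at 5 concentrations. Step 3: Interpolate endpoints linearly; if unreached, use highest concentration. Here, GI50 denotes the concentration required for 50% inhibition of growth. TGI: concentration producing complete growth inhibition.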

Regarding `COC(=O)c1sc(-n2cnc3cc(OC)c(OC)cc32)cc1OCc1ccccc1C(F)(F)F`, the GI50 with MALME-3M melanoma is > 25 µM; with PC-3 prostate it was > 25 µM; in the test on HOP-62 NSCLC, 9.22 µM; in the test on RXF 393 renal, 7.45 µM; in the test on KM12 colon, > 25 µM; in the test with SNB-19 CNS it was 24.9 µM. Moreover, the GI50 was > 25 µM in the test with HCT-15 colon, > 25 µM with T-47D breast, > 25 µM in the test on MCF7 breast and 5.79 µM in the test on MDA-MB-231 breast. For the same compound, the TGI in the test on MALME-3M melanoma, in the test with PC-3 prostate, in the test on HOP-62 NSCLC, in the test on RXF 393 renal, in the test with KM12 colon and in the test with SNB-19 CNS was > 25 µM in each case. The TGI in the test on HCT-15 colon, in the test with T-47D breast, with MCF7 breast and in the test with MDA-MB-231 breast was > 25 µM throughout.

On to `O=C(O)CN(CCN(CC(=O)O)CC(=O)O)CC(=O)O.[Cu+2].[Na+]`, for which the GI50 was > 100 µM in the test on MALME-3M melanoma; > 100 µM with PC-3 prostate; 26.2 µM in the test with HOP-62 NSCLC; > 100 µM in the test on RXF 393 renal; > 100 µM in the test with KM12 colon; > 100 µM in the test on SNB-19 CNS. For the same compound, the GI50 in the test on HCT-15 colon, with T-47D breast, in the test on MCF7 breast and in the test with MDA-MB-231 breast was > 100 µM throughout. The TGI in the test on MALME-3M melanoma was > 100 µM; with PC-3 prostate, > 100 µM; in the test on HOP-62 NSCLC, 79.5 µM; with RXF 393 renal, > 100 µM; with KM12 colon, > 100 µM; with SNB-19 CNS it was > 100 µM. In addition, the TGI in the test with HCT-15 colon, in the test on T-47D breast, with MCF7 breast and in the test on MDA-MB-231 breast was > 100 µM each time.

`O=C1c2ccc3c4c(ccc(c24)C(=O)N1CCCCO)C(=O)N(CCCCO)C3=O`: the GI50 in the test on MALME-3M melanoma was 0.254 µM; with PC-3 prostate, 3.1 µM; with HOP-62 NSCLC, 2.53 µM; in the test with RXF 393 renal, 2.08 µM; with KM12 colon, 2.27 µM; in the test on SNB-19 CNS it was 2.34 µM. For the same compound, the GI50 in the test on HCT-15 colon was 1.55 µM; with T-47D breast, 2.54 µM; in the test on MCF7 breast, 1.43 µM; in the test on MDA-MB-231 breast, 2.9 µM. The TGI was found to be 1.02 µM in the test on MALME-3M melanoma; 30.1 µM with PC-3 prostate; 12.7 µM with HOP-62 NSCLC; 10.7 µM with RXF 393 renal; 10.7 µM in the test with KM12 colon; 10.5 µM with SNB-19 CNS. The TGI in the test with HCT-15 colon stood at 10.5 µM; with T-47D breast, 7.26 µM; with MCF7 breast it was 3.84 µM; with MDA-MB-231 breast it was 97.9 µM.

Turning to `COc1oc(C2C/C(=C/C(C)=C/C(C)=C/C(C)=C/c3ccc([N+](=O)[O-])cc3)CO2)c(C)c(=O)c1C` (stereo not given), the TGI is 16.2 µM with MALME-3M melanoma; 18.4 µM in the test on PC-3 prostate; > 100 µM with HOP-62 NSCLC; 95.1 µM with RXF 393 renal; > 48.2 µM in the test on KM12 colon; 73.7 µM in the test with SNB-19 CNS. For the same compound, the TGI in the test with HCT-15 colon is > 56.6 µM; with T-47D breast, 6.81 µM; with MCF7 breast, 19 µM; in the test with MDA-MB-231 breast it was 38.9 µM.

Consider `COc1cccc(/C=C\C(=O)c2ccccc2)c1`, for which the GI50 with MALME-3M melanoma is 14.3 µM; in the test with PC-3 prostate it was 3.73 µM; in the test on HOP-62 NSCLC, 20.2 µM; in the test with RXF 393 renal, 2.46 µM; in the test on KM12 colon it was 2.3 µM; with SNB-19 CNS it was 7.68 µM. For the same compound, the GI50 in the test with HCT-15 colon is 2.4 µM; with T-47D breast, 9.72 µM; in the test with MCF7 breast, 2.57 µM; in the test on MDA-MB-231 breast it was 17.1 µM. The TGI in the test on MALME-3M melanoma was found to be 31.4 µM; with PC-3 prostate it was 26.2 µM; in the test on HOP-62 NSCLC it was 42.1 µM; in the test on RXF 393 renal, 5.34 µM; in the test on KM12 colon, 4.91 µM; in the test on SNB-19 CNS it was 24.4 µM. Moreover, the TGI with HCT-15 colon came to 10.1 µM; with T-47D breast it was 41.3 µM; in the test on MCF7 breast, 18.6 µM; in the test on MDA-MB-231 breast it was 36.2 µM.

In the case of `Cc1ccc(C)c(N2CCN(c3ccncc3N)CC2)c1`, the GI50 in the test with MALME-3M melanoma was 17.6 µM; in the test on PC-3 prostate, 14.2 µM; in the test with HOP-62 NSCLC, 26.9 µM; with RXF 393 renal, 9.31 µM; with KM12 colon it was 15.1 µM; in the test with SNB-19 CNS it was 28.8 µM. Besides, the GI50 was 5.61 µM in the test on HCT-15 colon, 3.23 µM in the test on T-47D breast, 10.3 µM in the test with MCF7 breast and 14.3 µM with MDA-MB-231 breast. Also, the TGI in the test on MALME-3M melanoma is 40.7 µM; in the test with PC-3 prostate, 84.7 µM; with HOP-62 NSCLC, > 100 µM; in the test with RXF 393 renal, 36.4 µM; in the test on KM12 colon, 47.1 µM; in the test with SNB-19 CNS, > 100 µM. Besides, the TGI is > 100 µM with HCT-15 colon, 30.3 µM in the test with T-47D breast, 29.6 µM in the test on MCF7 breast and 36.9 µM with MDA-MB-231 breast.

As for `Nc1nc(N)c(CCCCc2ccc([N+](=O)[O-])cc2)c(N)n1`, the TGI in the test with MALME-3M melanoma, in the test with PC-3 prostate, in the test on HOP-62 NSCLC, in the test with RXF 393 renal, in the test on KM12 colon and in the test with SNB-19 CNS was > 100 µM in each case. Besides, the TGI with HCT-15 colon, with T-47D breast, in the test with MCF7 breast and in the test on MDA-MB-231 breast was > 100 µM throughout.

As to `O=C1c2ccccc2C(=O)c2c1ccc1c3ccccc3n(-c3ccccc3)c21`, the TGI in the test on MALME-3M melanoma is 44.6 µM; with PC-3 prostate, > 100 µM; with HOP-62 NSCLC, > 100 µM; in the test with RXF 393 renal it was 34.2 µM; in the test with KM12 colon, 50.1 µM; with SNB-19 CNS, > 100 µM. Also, the TGI in the test with HCT-15 colon was 32.6 µM; in the test with T-47D breast, 45.5 µM; with MCF7 breast it was > 55.6 µM; in the test with MDA-MB-231 breast, 77.7 µM.
